Measured values as given in BindingDB's records for doi:10.1021/jm200999f (Corning, 2011).

Target: G-protein coupled receptor 35 (Homo sapiens, UniProt Q9HC97)
Assay: Antagonist activity at GPR35 in human HT-29 cells assessed as inhibition of zaprinast-induced DMR by dynamic mass redistribution assay

Sequence of G-protein coupled receptor 35 (Q9HC97 whole entry): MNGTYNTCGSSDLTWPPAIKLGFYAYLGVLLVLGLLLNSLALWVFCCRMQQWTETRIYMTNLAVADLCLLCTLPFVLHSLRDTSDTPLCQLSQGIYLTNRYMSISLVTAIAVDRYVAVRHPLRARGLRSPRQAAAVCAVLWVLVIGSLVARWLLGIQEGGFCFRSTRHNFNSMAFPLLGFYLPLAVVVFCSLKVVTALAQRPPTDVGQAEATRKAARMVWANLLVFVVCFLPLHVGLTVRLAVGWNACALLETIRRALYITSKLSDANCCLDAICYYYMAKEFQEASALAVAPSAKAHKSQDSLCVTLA

CCCOc1ccccc1-c1nc2nn[nH]c2c(=O)[nH]1 [5-(2-propoxyphenyl)-2H,3H,7H-[1,2,3]triazolo[4,5-d]pyrimidin-7-one]
IC50: 10.5 µM
